Assay results taken from US8071778B2, “Substituted heterocyclic ethers and their use in CNS disorders” (Bristol-Myers Squibb Company, priority 2006, dated 2011).
Read-outs that look alike come from different tables or passages of the source.

How the values were obtained:
NK-1 = molecular target: T1, NK-1 (Homo sapiens, UniProt P25103); experiment: NK1 radioligand binding assay; conditions: U373 membrane preparation, [125I]Substance P
T1 construct: endogenous in cells; host or cells: U373 cells (crude membranes)
Protocol: (§1) NK-1 Binding assay. Crude membrane suspensions were prepared for the NK1 and SERT radioligand binding assays from U373 cells or recombinant HEK-293 cells expressing hSERT, respectively. […] The medium is removed from the flasks and the cells rinsed with HBSS without Ca and without Mg. The cells are then incubated for 5-10 minutes in 10 mM Tris-Cl, pH 7.5, 5 mM EDTA before the cells are lifted with a combination of pipetting and scraping, as needed. To prepare membranes, the cell suspension is collected into centrifuge bottles and homogenized for 30 seconds with a Polytron homogenizer. The suspension is centrifuged for 30 min 32,000×g, 4° C., then the supernatant is decanted and the pellet resuspended and homogenized in 50 mM Tris-Cl, pH 7.5, 1 mM EDTA for 10 seconds. The suspension is then centrifuged again for 30 min 32,000×g, 4° C. The supernatant is decanted and the pellet resuspended in 50 mM Tris-Cl, pH 7.5, 1 mM EDTA and briefly homogenized. A Bradford assay (Bio-rad) is performed and the membrane preparation diluted to 2 mg/ml with 50 mM Tris-Cl, pH 7.5, 1 mM EDTA. Aliquots are prepared, and then frozen and stored at −80° C.
(§2) NK1 radioligand binding assay. Compounds are dissolved in 100% DMSO at a concentration 100× the desired highest assay concentration, serially diluted 1:3 in 100% DMSO, and 0.6 ul/well of each solution is dispensed to a Nunc polypropylene, round bottom, 384 well plate. […] The contents of the assay plate are then transferred to a Millipore MultiscreenHTS GF/B filter plate which has been pretreated with 0.5% PEI for at least one hour. The plate is vacuum filtered and washed with 7 washes of 100 ul/well of 20 mM Tris-Cl, pH 7.5, 0.5% (w/v) BSA chilled to 4° C. The filtration and washing is completed in less than 90 s. The plates are air-dried overnight, 12 ul/well of MicroScint scintillation fluid added, and the plates counted in a Trilux.
(§3) Data analysis. […] Each plate is run in triplicate, and the concentration response curve thus generated is fit using the four-parameter dose response equation, Y=Bottom+(Top-Bottom)/(1+10^((Log IC50−X)*HillSlope)) in order to determine the IC50 value for each compound. The radioligand concentration chosen for each assay corresponds to the Kd concentration determined through saturation binding analysis for each assay.

hSERT = molecular target: T2, hSERT (Homo sapiens, UniProt P31645); experiment: SERT radioligand binding assay
T2 construct: expressed in transfected cells; host or cells: HEK-293 cells (crude membranes)
Protocol: as §1
as §2, with “SERT” for “NK1”, “0.4” for “0.6”, “50” for “20”, “120 mM NaCl, 5 mM KCl” for “0.5% (w/v) BSA”
as §3

[1] = HEK-hSERT membrane preparation, [125I]RTI-55, read-out: SERT IC50

T1 sequence (P25103 whole entry): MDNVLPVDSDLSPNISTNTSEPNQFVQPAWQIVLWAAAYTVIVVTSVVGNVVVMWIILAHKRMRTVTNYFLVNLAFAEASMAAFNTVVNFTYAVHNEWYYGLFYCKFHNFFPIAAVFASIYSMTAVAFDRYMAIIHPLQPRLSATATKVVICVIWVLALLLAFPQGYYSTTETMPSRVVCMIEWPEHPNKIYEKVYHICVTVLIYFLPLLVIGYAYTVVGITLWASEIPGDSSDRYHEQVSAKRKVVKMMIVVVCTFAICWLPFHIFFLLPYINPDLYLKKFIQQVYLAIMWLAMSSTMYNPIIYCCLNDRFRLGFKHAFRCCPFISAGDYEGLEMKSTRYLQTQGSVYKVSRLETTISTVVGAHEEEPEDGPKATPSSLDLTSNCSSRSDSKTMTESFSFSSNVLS
T2 sequence (P31645 whole entry): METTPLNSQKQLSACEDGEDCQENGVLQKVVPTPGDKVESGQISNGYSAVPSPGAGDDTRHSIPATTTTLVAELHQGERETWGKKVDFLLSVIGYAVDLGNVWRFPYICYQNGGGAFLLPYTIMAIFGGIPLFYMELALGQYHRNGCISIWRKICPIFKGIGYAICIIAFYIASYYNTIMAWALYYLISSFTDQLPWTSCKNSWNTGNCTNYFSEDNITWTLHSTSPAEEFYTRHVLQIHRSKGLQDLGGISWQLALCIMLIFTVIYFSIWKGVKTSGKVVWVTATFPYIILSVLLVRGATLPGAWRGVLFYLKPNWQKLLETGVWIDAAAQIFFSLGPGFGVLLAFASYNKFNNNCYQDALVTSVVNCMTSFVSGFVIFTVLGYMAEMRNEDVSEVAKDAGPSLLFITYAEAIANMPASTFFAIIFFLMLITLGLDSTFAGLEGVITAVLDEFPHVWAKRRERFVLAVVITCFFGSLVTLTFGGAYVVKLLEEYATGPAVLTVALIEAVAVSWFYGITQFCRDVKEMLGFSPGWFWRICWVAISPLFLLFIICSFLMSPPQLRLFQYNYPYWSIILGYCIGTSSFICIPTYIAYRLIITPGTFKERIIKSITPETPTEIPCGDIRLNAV

Row | IC50 (hSERT; [1]) | SMILES | IC50 (NK-1) | IC50 (hSERT)
1 | – | CN1CCC(COCc2cc(C(F)(F)F)cc(-c3ccc(C#N)cc3)n2)(c2ccccc2)CC1 [Example 41] | 0.01 to 100 nM | 0.01 to 100 nM
2 | – | COc1cc(COCC2(c3ccc(F)cc3)CCN(C)CC2)cc(-c2ccc(C#N)cc2)n1 [Example 76] | 0.01 to 100 nM | 0.01 to 100 nM
3 | – | CN1CCC(COCc2cc(C(F)(F)F)cc(-c3ccc(C#N)cc3)n2)(c2cccc(F)c2)CC1 [Example 85] | 0.01 to 100 nM | 0.01 to 100 nM
4 | – | CC(OCC1(c2ccc(F)cc2)CCN(C)CC1)c1cc(C(F)(F)F)cc(-c2ccc(C#N)cc2)n1 (centres unmarked) [Example 96] | 0.01 to 100 nM | 0.01 to 100 nM
5 | – | CN1CCC(COCc2cc(C(F)(F)F)cc(-c3ccc(F)cc3)n2)(c2ccccc2)CC1 [Example 42] | 0.01 to 100 nM | 0.01 to 100 nM
6 | – | C[C@@H]1CCCN1c1cc(C(F)(F)F)cc(COCC2(c3ccc(F)cc3)CCN(C)CC2)n1 [Example 94] | 0.01 to 100 nM | 0.01 to 100 nM
7 | – | CN1CCC(COCc2cc(C(F)(F)F)cc(Cl)n2)(c2cccnc2)CC1 [Example 35, 2-chloro-6-(((1-methyl-4-(pyridin-3-yl)piperidin-4-yl)methoxy)methyl)-4-(trifluoromethyl)pyridine] | > 300 nM | 0.01 to 100 nM
8 | 0.01 to 100 nM | COc1ccc(-c2cc(C(F)(F)F)cc(COCC3(c4ccccc4)CCNCC3)n2)cc1 [Example 1, 2-(4-methoxyphenyl)-6-(((4-phenylpiperidin-4-yl)methoxy)methyl)-4-(trifluoromethyl)pyridine] | 0.01 to 100 nM | –
9 | – | CC(OCC1(c2ccc(F)cc2)CCN(C)CC1)c1cc(C(F)(F)F)cc(Br)n1 (centres unmarked) [Example 33, 2-bromo-6-(1-((4-(4-fluorophenyl)-1-methylpiperidin-4-yl)methoxy)ethyl)-4-(trifluoromethyl)p] | 0.01 to 100 nM | 0.01 to 100 nM
10 | – | CC(OCC1(c2ccc(F)cc2)CCN(C)CC1)c1cc(C(F)(F)F)cc(N2CCCC2)n1 (centres unmarked) [Example 86] | 0.01 to 100 nM | 0.01 to 100 nM
11 | 0.01 to 100 nM | Cc1cc(-c2cc(C(F)(F)F)cc(COCC3(c4ccc(F)cc4)CCNCC3)n2)ccc1C#N [Example 11] | 0.01 to 100 nM | –
12 | – | Cc1cc(-c2cc(C(F)(F)F)cc(COCC3(c4ccc(F)cc4)CCN(C)CC3)n2)ccc1C#N [Example 61] | 0.01 to 100 nM | 0.01 to 100 nM
13 | – | CN1CCC(COCc2cc(C(F)(F)F)cc(-c3ccc(C#N)cc3)n2)(c2ccc(F)c(F)c2)CC1 [Example 81] | 0.01 to 100 nM | 0.01 to 100 nM
14 | 0.01 to 100 nM | CCC(CC)Nc1cc(C(F)(F)F)cc(COCC2(c3ccc(F)cc3)CCNCC2)n1 [Example 21] | 0.01 to 100 nM | –
15 | – | CN1CCC(COCc2cc(C(F)(F)F)cc(-c3ccc(C#N)cc3)n2)(c2ccc(C#N)cc2)CC1 [Example 84] | 0.01 to 100 nM | 0.01 to 100 nM
16 | – | CN1CCC(COCc2cc(C(F)(F)F)cc(-c3ccc(C#N)cc3)n2)(c2ccc(F)cc2F)CC1 [Example 64] | 0.01 to 100 nM | 100 to 300 nM
17 | 0.01 to 100 nM | N#CC1CCN(c2cc(C(F)(F)F)cc(COCC3(c4ccc(F)cc4)CCNCC3)n2)CC1 [Example 17] | 0.01 to 100 nM | –
18 | 0.01 to 100 nM | N#Cc1ccc(-c2cc(C(F)(F)F)cc(COCC3(c4ccccc4)CCNCC3)n2)cc1 [Example 6] | 0.01 to 100 nM | –
19 | – | COc1ccc(-c2cc(C(F)(F)F)cc(COCC3(c4ccc(F)cc4)CCN(C)CC3)n2)cc1F [Example 75] | 0.01 to 100 nM | 0.01 to 100 nM
20 | – | Cc1cc(-c2cc(C(F)(F)F)cc(COCC3(c4ccccc4)CCN(C)CC3)n2)ccc1C#N [Example 60] | 0.01 to 100 nM | 0.01 to 100 nM
21 | – | CN1CCC(COCc2cc(N3CCCC3)cc(C(F)(F)F)n2)(c2ccccc2)CC1 [Example 48] | 0.01 to 100 nM | 0.01 to 100 nM
22 | – | CN1CCC(COCc2cc(C(F)(F)F)cc(-c3ccc(F)cc3F)n2)(c2ccc(F)cc2)CC1 [Example 62] | 0.01 to 100 nM | 0.01 to 100 nM
23 | – | CN1CCC(COCc2cc(C(F)(F)F)cc(-c3ccc(C#N)cc3)n2)(c2cccc(C(F)(F)F)c2)CC1 [Example 83] | 0.01 to 100 nM | 100 to 300 nM
24 | – | C[C@H]1CCCN1c1cc(C(F)(F)F)cc(COCC2(c3ccc(F)cc3)CCN(C)CC2)n1 [Example 93] | 0.01 to 100 nM | 0.01 to 100 nM
25 | – | CN1CCC(COCc2cc(C(F)(F)F)cc(-c3cccn3C(=O)OC(C)(C)C)n2)(c2ccc(F)cc2)CC1 [Example 65] | 0.01 to 100 nM | 100 to 300 nM
26 | 0.01 to 100 nM | N#Cc1ccc(-c2cc(C(F)(F)F)cc(COCC3(c4ccc(F)cc4)CCNCC3)n2)cc1 [Example 7] | 0.01 to 100 nM | –
27 | – | CC1CCCN1c1cc(C(F)(F)F)cc(COCC2(c3ccc(F)cc3)CCN(C)CC2)n1 (centres unmarked) [Example 90] | 0.01 to 100 nM | 0.01 to 100 nM
28 | – | COc1cc(C(C)OCC2(c3ccc(F)cc3)CCN(C)CC2)cc(-c2ccc(C#N)cc2)n1 (centres unmarked) [Example 79] | 0.01 to 100 nM | 0.01 to 100 nM
29 | – | COC(=O)c1ccc(-c2cc(C(F)(F)F)cc(COCC3(c4ccc(F)cc4)CCN(C)CC3)n2)c(F)c1 [Example 63] | 0.01 to 100 nM | 0.01 to 100 nM

Row | SMILES | IC50 (hSERT; [1]) | IC50 (NK-1) | IC50 (hSERT)
30 | CC(OCC1(c2ccccc2)CCN(C)CC1)c1cc(C(F)(F)F)cc(-c2ccc(F)cc2)n1 (centres unmarked) [Example 34, 2-(4-fluorophenyl)-6-(1-((1-methyl-4-phenylpiperidin-4-yl)methoxy)ethyl)-4-(trifluoromethyl)pyridine] | 0.01 to 100 nM | 0.01 to 100 nM | –
31 | CN1CCC(COCc2cc(C(F)(F)F)cc(N3CCC(N4CCCC4)CC3)n2)(c2ccccc2)CC1 [Example 88] | 0.01 to 100 nM | > 300 nM | –
